Experiment: xn = mol fraction of the nth substance listed
Conditions: Gas, Frequency=0.002 MHz, Spherical resonator

[He] [helium] + C
Conditions	speed of sound [m/s]
325 K, 5510.1 kPa, x2 = 0.95	474.34
325 K, 6484.7 kPa, x2 = 0.8999	489.68
325 K, 6498.1 kPa, x2 = 0.95	475.29
325 K, 7001.3 kPa, x2 = 0.95	475.96
325 K, 7483.3 kPa, x2 = 0.8999	491.54
325 K, 7498.5 kPa, x2 = 0.95	476.75
325 K, 8497.4 kPa, x2 = 0.8999	493.86
325 K, 8512.5 kPa, x2 = 0.95	478.75
325 K, 9494.2 kPa, x2 = 0.8999	496.64
325 K, 9503.9 kPa, x2 = 0.95	481.25
325 K, 10493 kPa, x2 = 0.8999	499.87
325 K, 10502 kPa, x2 = 0.95	484.31
325 K, 11469 kPa, x2 = 0.95	487.82
325 K, 11475 kPa, x2 = 0.8999	503.57
325 K, 12500 kPa, x2 = 0.8999	507.85
325 K, 12517 kPa, x2 = 0.95	492.25
325 K, 13295 kPa, x2 = 0.95	495.91
325 K, 13503 kPa, x2 = 0.8999	512.52
325 K, 14011 kPa, x2 = 0.95	499.58
325 K, 14493 kPa, x2 = 0.8999	517.56
325 K, 14716 kPa, x2 = 0.95	503.46
325 K, 15294 kPa, x2 = 0.8999	521.98
325 K, 15309 kPa, x2 = 0.95	506.94
325 K, 15995 kPa, x2 = 0.8999	526.06
325 K, 16003 kPa, x2 = 0.95	511.23
325 K, 16485 kPa, x2 = 0.8999	529.05
325 K, 16552 kPa, x2 = 0.95	514.81
325 K, 16992 kPa, x2 = 0.8999	532.23
325 K, 17002 kPa, x2 = 0.95	517.85
325 K, 17513 kPa, x2 = 0.95	521.43
325 K, 17520 kPa, x2 = 0.8999	535.66
325 K, 17961 kPa, x2 = 0.95	524.66
325 K, 17995 kPa, x2 = 0.8999	538.81
325 K, 18490 kPa, x2 = 0.8999	542.22
325 K, 18521 kPa, x2 = 0.95	528.85
325 K, 18993 kPa, x2 = 0.8999	545.76
325 K, 19024 kPa, x2 = 0.95	532.71
325 K, 19504 kPa, x2 = 0.8999	549.41
325 K, 19536 kPa, x2 = 0.95	536.75
325 K, 19906 kPa, x2 = 0.8999	552.38
350 K, 476.77 kPa, x2 = 0.95	491.9
350 K, 489.4 kPa, x2 = 0.8999	503.05
350 K, 985.81 kPa, x2 = 0.95	491.68
350 K, 990 kPa, x2 = 0.8999	503.09
350 K, 1981.5 kPa, x2 = 0.8999	503.39
350 K, 1988.5 kPa, x2 = 0.95	491.41
350 K, 3476.8 kPa, x2 = 0.8999	504.31
350 K, 3557.7 kPa, x2 = 0.95	491.72
350 K, 4993.3 kPa, x2 = 0.8999	506.12
350 K, 5005.4 kPa, x2 = 0.95	492.68
350 K, 6484 kPa, x2 = 0.8999	508.51
350 K, 6520.9 kPa, x2 = 0.95	494.52
350 K, 7487.6 kPa, x2 = 0.8999	510.6
350 K, 8493.7 kPa, x2 = 0.8999	513.01
350 K, 8537.3 kPa, x2 = 0.95	498.36
350 K, 9502.1 kPa, x2 = 0.8999	515.83

Reference: the NIST ThermoML archive (doi:10.1016/j.jct.2019.07.011)
